Laboratory results from patent publication US20260199350A1, “FLAVONES, QUINOLINONES, QUINAZOLINONES, AND AURONES, AND USES IN CK2-MEDIATED DISEASES” (Salk Institute for Biological Studies, priority 2022, published 2026).
Converted amounts (≈) assume the structure as drawn. Like-named read-outs stand apart in the source and are kept apart here.

Tests used:
[1] = system: IL-6 secretion; assay: IL-6 secretion assay in astrocytes (Promega Lumit IL-6 kit); type: cell-based, human; conditions: Homo sapiens, Astrocyte
Experimental: IL-6 secretion assay. HCAs were plated at 20,000 cells per well in white clear bottom 96-well plates. Two to three days later, media was removed and replaced with media containing 10 ng/mL IL1B and compound dilution series. Five hours later, plates were processed using the Lumit IL-6 Assay Kit (Promega W6030) according to the manufacturer's instructions.
• ^1Radiometric kinase assay from Eurofins. Performed in astrocytes with a Promega Lumit IL-6 kit. A series of halogenated flavones was generated and assayed (Table 3).

[2] = molecular target: T1, CK2A1 (Homo sapiens, UniProt P68400); assay: Radiometric kinase assay (Eurofins), CK2A1; type: biochemical
T1 construct: purchased Eurofins
From the text: FIGS. 4A-4F characterize flavones for in vitro and in-cell CK2 inhibition. […] Representative of two independent experiments. […] Nonlinear fit was used to calculate IC50. […] Nonlinear fit was used to calculate IC50. […] Nonlinear fit was used to calculate IC50. […] Normalized to DMSO, data are representative of three independent experiments.
(§1) • ^1Radiometric kinase assay from Eurofins. Performed in astrocytes with a Promega Lumit IL-6 kit.

[3] = molecular target: T2, CK2A2 (Homo sapiens, UniProt P19784); assay: Radiometric kinase assay (Eurofins), CK2A2; type: biochemical
T2 construct: purchased Eurofins
From the text: as §1

[4] = Aqueous solubility; type: physicochemical
[5] = Table 2, read-out: CK2A1 RAD IC50
[6] = Table 2, read-out: CK2A2 RAD IC50
[7] = Table 2, astrocytes, read-out: IL6-Inhib.
[8] = Table 10, aurones, read-out: CK2A1 IC50
[9] = Table 10, aurones, read-out: CK2A2 IC50
[10] = Table 3, halogenated flavones, read-out: CK2A1 RAD IC50
[11] = Table 3, halogenated flavones, read-out: CK2A2 RAD IC50
[12] = aqueous (not further specified), Table 3, read-out: Aqueous Solubility
[13] = Table 8, quinazolinones, read-out: CK2A1 RAD IC50
[14] = Table 8, quinazolinones, read-out: CK2A2 RAD IC50
[15] = Table 4, read-out: CK2A1 RAD IC50
[16] = Table 4, read-out: CK2A2 RAD IC50

T2 sequence (P19784 whole entry): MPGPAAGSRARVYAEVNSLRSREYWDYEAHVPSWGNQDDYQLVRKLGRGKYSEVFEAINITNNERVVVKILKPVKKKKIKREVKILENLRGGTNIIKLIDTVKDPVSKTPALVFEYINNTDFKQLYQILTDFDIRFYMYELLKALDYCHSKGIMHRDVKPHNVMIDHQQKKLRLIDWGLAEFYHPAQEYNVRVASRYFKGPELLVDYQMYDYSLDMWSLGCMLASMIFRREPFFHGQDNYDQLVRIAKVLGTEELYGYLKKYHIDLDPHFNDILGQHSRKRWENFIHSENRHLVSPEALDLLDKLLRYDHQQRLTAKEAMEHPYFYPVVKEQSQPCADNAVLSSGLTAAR
T1 sequence (P68400 whole entry): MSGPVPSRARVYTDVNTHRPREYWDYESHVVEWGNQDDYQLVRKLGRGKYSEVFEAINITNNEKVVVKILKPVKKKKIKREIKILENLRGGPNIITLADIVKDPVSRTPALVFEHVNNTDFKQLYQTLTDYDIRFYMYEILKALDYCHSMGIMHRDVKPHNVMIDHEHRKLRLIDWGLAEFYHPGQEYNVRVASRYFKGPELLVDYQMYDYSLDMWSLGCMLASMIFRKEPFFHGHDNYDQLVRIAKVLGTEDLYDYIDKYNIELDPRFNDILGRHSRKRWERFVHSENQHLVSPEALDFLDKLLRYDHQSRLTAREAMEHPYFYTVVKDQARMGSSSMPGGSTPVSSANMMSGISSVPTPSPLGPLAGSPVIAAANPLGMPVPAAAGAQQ

O=C(O)c1ccc2c(c1)nc(Nc1cccc(Cl)c1)c1ccncc12 [CX-4945, silmitasertib, reference compound]
IC50 ([1]; astrocytes stimulated with IL1-β, after 5 hours, read-out: IC50, secretion of IL-6): 315 nM

COc1cc(-c2cc(=O)c3cc(Br)cc(Br)c3o2)ncc1O [JKT.77A]
IC50 [2, 5]: 21 nM | IC50 [3, 6]: 19 nM | IC50 [1, 7]: 6700 nM

O=c1cc(-c2ccc(O)c(C(F)(F)F)c2)oc2c(Br)cc(Br)cc12 [JKT.460A]
IC50 [2, 5]: 609 nM | IC50 [3, 6]: 129 nM | IC50 [1, 7]: 3000 nM

O=c1cc(-c2cc(F)c(O)c(F)c2)oc2c(Br)cc(Br)cc12 [JKT.461B]
IC50 [2, 5]: 76 nM | IC50 [3, 6]: 32 nM | IC50 [1, 7]: > 10000 nM

O=c1cc(-c2ccc(O)c(Br)c2)oc2c(Br)cc(Br)cc12 [JKT.464A]
IC50 [2, 5]: 19 nM | IC50 [3, 6]: 3 nM | IC50 [1, 7]: 5000 nM

O=c1cc(-c2cc(Cl)c(O)c(Cl)c2)oc2c(Br)cc(Br)cc12 [JKT.465A]
IC50 [2, 5]: 134 nM | IC50 [3, 6]: 45 nM | IC50 [1, 7]: 4900 nM

Cc1cc(-c2cc(=O)c3cc(Br)cc(Br)c3o2)ccc1O [JKT.475A]
IC50 [2, 5]: > 5000 nM | IC50 [3, 6]: 2060 nM | IC50 [1, 7]: > 10000 nM

COc1nc(-c2cc(=O)c3cc(Br)cc(Br)c3o2)ccc1O [JKT.606A]
IC50 [2, 5]: 9 nM | IC50 [3, 6]: 4 nM | IC50 [1, 7]: 3500 nM

O=C1/C(=C/c2ccc(O)cc2)Oc2c(Br)cc(Br)cc21 [JKT.629A]
IC50 [2, 8]: > 5000 nM | IC50 [3, 9]: > 5000 nM | IC50 ([1]; Table 10, read-out: IL6-Inhib.): 7900 nM | solubility ([4]; Table 10, read-out: Solubility): 5.6 µM (≈ 2.22 µg/mL)

COc1cc(/C=C2\Oc3c(Br)cc(Br)cc3C2=O)ccc1O [JKT.630A]
IC50 [2, 8]: 211 nM | IC50 [3, 9]: 274 nM | IC50 ([1]; Table 10, read-out: IL6-Inhib.): 9800 nM | solubility ([4]; Table 10, read-out: Solubility): 3 µM (≈ 1.28 µg/mL)

O=C1/C(=C/c2cccc(O)c2)Oc2c(Br)cc(Br)cc21 [JKT.631A]
IC50 [2, 8]: > 5000 nM | IC50 [3, 9]: > 5000 nM | IC50 ([1]; Table 10, read-out: IL6-Inhib.): > 10000 nM | solubility ([4]; Table 10, read-out: Solubility): 22.6 µM (≈ 8.95 µg/mL)

N#Cc1ccc(/C=C2\Oc3c(Br)cc(Br)cc3C2=O)cc1 [JKT.632A]
IC50 [2, 8]: > 5000 nM | IC50 [3, 9]: > 5000 nM | IC50 ([1]; Table 10, read-out: IL6-Inhib.): 10000 nM | solubility ([4]; Table 10, read-out: Solubility): > 200 µM

O=C1/C(=C/c2ccc(-c3nnn[nH]3)cc2)Oc2c(Br)cc(Br)cc21 [JKT.633A]
IC50 [2, 8]: > 5000 nM | IC50 [3, 9]: > 5000 nM | IC50 ([1]; Table 10, read-out: IL6-Inhib.): > 10000 nM | solubility ([4]; Table 10, read-out: Solubility): 102 µM (≈ 45.8 µg/mL)

O=C1/C(=C/c2ccc(O)c(Br)c2)Oc2c(Br)cc(Br)cc21 [JKT.634A]
IC50 [2, 8]: 22 nM | Inhibition of CK2A1 ([2]; in words): potent inhibition of both | IC50 [3, 9]: 46 nM | Inhibition of CK2A2 ([3]; in words): potent inhibition of both | IC50 ([1]; Table 10, read-out: IL6-Inhib.): 2000 nM | solubility ([4]; Table 10, read-out: Solubility): 25.5 µM (≈ 12.1 µg/mL)

O=C1/C(=C/c2ccc(O)c(C(F)(F)F)c2)Oc2c(Br)cc(Br)cc21 [JKT.635A]
IC50 [2, 8]: 531 nM | IC50 [3, 9]: 213 nM | IC50 ([1]; Table 10, read-out: IL6-Inhib.): 1800 nM | solubility ([4]; Table 10, read-out: Solubility): 22 µM (≈ 10.2 µg/mL)

O=C(O)c1ccc(/C=C2\Oc3c(Br)cc(Br)cc3C2=O)cc1 [JKT.636A]
IC50 [2, 8]: 537 nM | Window of selectivity for CK2A2 over CK2A1 [3]: nine-fold | IC50 [3, 9]: 62 nM | IC50 ([1]; Table 10, read-out: IL6-Inhib.): > 10000 nM | solubility ([4]; Table 10, read-out: Solubility): > 200 µM

O=C1/C(=C/c2ccco2)Oc2c(Br)cc(Br)cc21 [JKT.637A]
IC50 [2, 8]: > 5000 nM | IC50 [3, 9]: > 5000 nM | IC50 ([1]; Table 10, read-out: IL6-Inhib.): > 10000 nM | solubility ([4]; Table 10, read-out: Solubility): 52.4 µM (≈ 19.4 µg/mL)

O=C1/C(=C/c2ccoc2)Oc2c(Br)cc(Br)cc21 [JKT.638A]
IC50 [2, 8]: > 5000 nM | IC50 [3, 9]: > 5000 nM | IC50 ([1]; Table 10, read-out: IL6-Inhib.): > 10000 nM | solubility ([4]; Table 10, read-out: Solubility): 30.2 µM (≈ 11.2 µg/mL)

COc1nc(-c2cc(=O)c3cccc(Br)c3o2)ccc1O [JKT.666A]
IC50 [2, 5]: 5 nM | IC50 [3, 6]: 8 nM | IC50 [1, 7]: 2000 nM

COc1nc(-c2cc(=O)c3cc(Cl)cc(Br)c3o2)ccc1O [JKT.669A]
IC50 [2, 5]: 7 nM | IC50 [3, 6]: 5 nM | IC50 [1, 7]: 2900 nM

COc1nc(-c2cc(=O)c3cc(Cl)cc(Cl)c3o2)ccc1O [JKT.678A]
IC50 [2, 5]: 17 nM | IC50 [3, 6]: 8 nM | IC50 [1, 7]: 3600 nM

COc1cc(-c2cc(=O)c3cc(Br)c(OC)c(Br)c3o2)ccc1O [JKT.706A]
IC50 [2, 5]: 247 nM | IC50 [3, 6]: 49 nM | IC50 [1, 7]: 8600 nM

O=c1cc(-c2ccc(O)c(Br)c2)oc2c(Br)cc(Cl)cc12 [JKT.714A]
IC50 [2, 10]: 12 nM | IC50 [3, 11]: 8 nM | IC50 ([1]; Table 3, read-out: IL6-Inhib.): 4600 nM | solubility [4, 12]: 35.2 µM (≈ 15.2 µg/mL)

O=c1cc(-c2ccc(O)c(Br)c2)oc2c(Cl)cc(Cl)cc12 [JKT.715A]
IC50 [2, 10]: 18 nM | IC50 [3, 11]: 16 nM | IC50 ([1]; Table 3, read-out: IL6-Inhib.): 4100 nM | solubility [4, 12]: 120 µM (≈ 46.2 µg/mL)

O=c1cc(-c2ccc(O)c(Cl)c2)oc2c(Br)cc(Br)cc12 [JKT.721A]
IC50 [2, 10]: 10 nM | IC50 [3, 11]: 5 nM | IC50 ([1]; Table 3, read-out: IL6-Inhib.): 2600 nM | solubility [4, 12]: 19.6 µM (≈ 8.44 µg/mL)

O=c1cc(-c2ccc(O)c(Cl)c2)oc2c(Br)cc(Cl)cc12 [JKT.722A]
IC50 [2, 10]: 10 nM | IC50 [3, 11]: 7 nM | IC50 ([1]; Table 3, read-out: IL6-Inhib.): 2200 nM | solubility [4, 12]: 27.5 µM (≈ 10.6 µg/mL)

COc1cc(-c2nc3c(Br)cc(Br)cc3c(=O)[nH]2)ccc1O [JKT.737B]
IC50 [2, 13]: 863 nM | IC50 [3, 14]: 2850 nM | IC50 ([1]; Table 8, read-out: IL6-Inhib.): > 10000 nM

Cn1c(-c2cc(F)c(O)c(F)c2)nc2c(Br)cccc2c1=O [JKT.873A]
IC50 [2, 13]: 566 nM | IC50 [3, 14]: 649 nM

Cn1c(-c2ccc(O)c(C(F)(F)F)c2)nc2c(Br)cc(Br)cc2c1=O [JKT.874D]
IC50 [2, 13]: > 5000 nM | IC50 [3, 14]: > 5000 nM

Cn1c(-c2ccc(O)c(C(F)(F)F)c2)nc2c(Br)cccc2c1=O [JKT.875A]
IC50 [2, 13]: > 5000 nM | IC50 [3, 14]: > 5000 nM

COc1cc(-c2nc3c(Br)cc(Br)cc3c(=O)n2C)ccc1O [JKT.876A]
IC50 [2, 13]: > 5000 nM | IC50 [3, 14]: > 5000 nM

COc1cc(-c2nc3c(Br)cccc3c(=O)n2C)ccc1O [JKT.877A]
IC50 [2, 13]: > 5000 nM | IC50 [3, 14]: > 5000 nM

O=c1[nH]c(-c2ccc(O)c(Br)c2)nc2c(Br)nc(Br)cc12 [JKT.880B]
IC50 [2, 13]: 95 nM | IC50 [3, 14]: 242 nM

O=c1cc(-c2ccc(O)c(Br)c2)oc2c(Br)nc(Br)cc12 [JKT.909A]
IC50 [2, 15]: 6 nM | IC50 [3, 16]: 6 nM

O=c1cc(-c2cc(Br)c(O)cn2)oc2c(Br)cc(Br)cc12 [JKT.923A]
IC50 [2, 15]: 11 nM | IC50 [3, 16]: 8 nM

O=c1[nH]c(-c2cc(Br)c(O)cn2)nc2c(Br)cc(Br)cc12 [JKT.932F]
IC50 [2, 13]: 107 nM | IC50 [3, 14]: 99 nM

O=c1cc(-c2ccc(O)c(Br)c2)[nH]c2c(Br)cc(Br)cc12 [JKT.944A]
IC50 ([2]; Table 6, quinolinones, read-out: CK2A1 RAD IC50): 128 nM | IC50 ([3]; Table 6, quinolinones, read-out: CK2A2 RAD IC50): 123 nM

O=c1[nH]c(-c2ccc(O)c(Cl)n2)nc2c(Br)cc(Br)cc12 [JKT.956A]
IC50 [2, 13]: 132 nM | IC50 [3, 14]: 105 nM

COc1nc(-c2nc3c(Br)cc(Br)cc3c(=O)[nH]2)ccc1O [JKT.968C]
IC50 [2, 13]: 27 nM | IC50 [3, 14]: 33 nM

COc1nc(-c2nc3c(Br)cccc3c(=O)[nH]2)ccc1O [JKT.975A]
IC50 [2, 13]: 26 nM | IC50 [3, 14]: 33 nM

COc1nc(-c2nc3c(Br)nc(Br)cc3c(=O)[nH]2)ccc1O [JKT.976B]
IC50 [2, 13]: 234 nM | IC50 [3, 14]: 495 nM | IC50 ([1]; Table 8, read-out: IL6-Inhib.): > 10000 nM

O=c1cc(-c2cc(Br)c(O)cn2)oc2c(Br)cccc12 [JKT.980A]
IC50 [2, 15]: 53 nM | IC50 [3, 16]: 55 nM

COc1nc(-c2nc3c(Br)cc(Br)cc3c(=O)n2C)ccc1O [JKT.983A]
IC50 [2, 13]: 677 nM | IC50 [3, 14]: 900 nM
